From patent US9499466B2, “Diene-based carboxylate anion and salt thereof, and polymerizable or curable composition thereof” (NIPPON SHOKUBAI CO., LTD., priority 2010, dated 2016) come the findings set out here.

Data set [1] in a line: Solubility test (dissolution method). To be noted: for Solubility (dissolution method) Water: mixed at 1%, 3%, 5%, 10%, 20% or more. From the text:
The solubility evaluation by the dissolution method requires complicated operations and a large amount of test sample. Therefore, this test is not suitable for screening. However, the solubility of each compound can be more accurately evaluated.

A short description of data set [2]: Adhesion of cured material to PET film (cross-cut method, JIS K 5600-5-6). To be noted: UV-cured film on surface-untreated PET film, cross-cut 10×10. Here is the method: Each compound shown in Table 11 was formed into a UV-cured film on a PET film in the same manner as in the pencil hardness test, except that the PET film used as a substrate was a surface-untreated polyethylene terephthalate (PET) film (Lumirror L-50T60, produced by Toray Industries, Inc.).
The adhesion of the UV-cured film to the PET film was evaluated based on JIS K 5600-5-6 (cross-cut method). The number of divided segments was 10×10 segments=100 segments. The adhesion was evaluated by the number of the segments which remain without peeling or damage in 100 segments.

Data set [3] in a line: Solubility test (film-forming method). To be noted: solvent dropped on film on glass plate; Water. Here is the method:
Each compound was applied on a glass plate and the glass plate was leaned against the wall. Each solvent shown in Table 5 was dropped (5 to 6 drops) on the glass plate with a pasteur pipette. The glass plate was visually observed after the dropped solvent was dried, the surface was optionally rubbed with a spatula, and the solubility (film-forming method) was evaluated according to the criteria shown in Table 4.

With `C=CC(=O)OCC(CC)(COC(=O)C=C)COC(=O)C=C` [TMPTA, reference compound], in data set [1], the “Solubility (dissolution method) Acetone” value was “◯◯ (Become uniform and transparent at a compound concentration of 20% or more)”; the “Solubility (dissolution method) Acetonitrile” value was “◯◯ (Become uniform and transparent at a compound concentration of 20% or more)”; the “Solubility (dissolution method) Ethyl acetate” value is “◯◯ (Become uniform and transparent at a compound concentration of 20% or more)”; the “Solubility (dissolution method) Methanol” value was “◯◯ (Become uniform and transparent at a compound concentration of 20% or more)”. In data set [1], the “Solubility (dissolution method) THF” value was “◯◯ (Become uniform and transparent at a compound concentration of 20% or more)”; the “Solubility (dissolution method) Toluene” value is “◯◯ (Become uniform and transparent at a compound concentration of 20% or more)”; the “Solubility (dissolution method) Water” value is “X (Not become uniform and transparent even at a compound concentration of 1%)”. Further, in data set [2], the “Adhesion (segments remaining without peeling or damage in 100 segments)” value was 71/100.

`C=CC(=O)OCCOCCOC(=O)C=C` [DEGDA, reference compound]: in data set [1], the “Solubility (dissolution method) Acetone” value was “◯◯ (Become uniform and transparent at a compound concentration of 20% or more)”; the “Solubility (dissolution method) Acetonitrile” value is “◯◯ (Become uniform and transparent at a compound concentration of 20% or more)”; the “Solubility (dissolution method) Ethyl acetate” value is “◯◯ (Become uniform and transparent at a compound concentration of 20% or more)”; the “Solubility (dissolution method) Methanol” value is “◯◯ (Become uniform and transparent at a compound concentration of 20% or more)”. Besides, in data set [1], the “Solubility (dissolution method) THF” value is “◯◯ (Become uniform and transparent at a compound concentration of 20% or more)”; the “Solubility (dissolution method) Toluene” value was “◯◯ (Become uniform and transparent at a compound concentration of 20% or more)”; the “Solubility (dissolution method) Water” value was “X-Δ (Become uniform and transparent at a compound concentration of 1%)”. For the same molecule, the “Adhesion (segments remaining without peeling or damage in 100 segments)” value in data set [2] was 32/100.

On to `C=CC(=O)OCC(C)(C)COC(=O)C=C` [NPGDA, reference compound], for which, in data set [1], the “Solubility (dissolution method) Acetone” value was “◯◯ (Become uniform and transparent at a compound concentration of 20% or more)”; the “Solubility (dissolution method) Acetonitrile” value is “◯◯ (Become uniform and transparent at a compound concentration of 20% or more)”; the “Solubility (dissolution method) Ethyl acetate” value was “◯◯ (Become uniform and transparent at a compound concentration of 20% or more)”; the “Solubility (dissolution method) Methanol” value is “◯◯ (Become uniform and transparent at a compound concentration of 20% or more)”. For the same molecule, in data set [1], the “Solubility (dissolution method) THF” value was “◯◯ (Become uniform and transparent at a compound concentration of 20% or more)”; the “Solubility (dissolution method) Toluene” value was “◯◯ (Become uniform and transparent at a compound concentration of 20% or more)”; the “Solubility (dissolution method) Water” value was “X (Not become uniform and transparent even at a compound concentration of 1%)”. For the same molecule, the “Adhesion (segments remaining without peeling or damage in 100 segments)” value in data set [2] was 49/100.

Regarding `C=CCOCC(=C)C(=O)OCC(C)(C)COC(=O)C(=C)COCC=C` [NPG-AMA, neopentyl glycol di(α-allyloxymethyl acrylate), reference compound], in data set [1], the “Solubility (dissolution method) Acetone” value is “◯◯ (Become uniform and transparent at a compound concentration of 20% or more)”; the “Solubility (dissolution method) Acetonitrile” value is “◯◯ (Become uniform and transparent at a compound concentration of 20% or more)”; the “Solubility (dissolution method) Ethyl acetate” value is “◯◯ (Become uniform and transparent at a compound concentration of 20% or more)”; the “Solubility (dissolution method) Methanol” value is “◯◯ (Become uniform and transparent at a compound concentration of 20% or more)”. Moreover, in data set [1], the “Solubility (dissolution method) THF” value was “◯◯ (Become uniform and transparent at a compound concentration of 20% or more)”; the “Solubility (dissolution method) Toluene” value is “◯◯ (Become uniform and transparent at a compound concentration of 20% or more)”; the “Solubility (dissolution method) Water” value was “X (Not become uniform and transparent even at a compound concentration of 1%)”. In addition, in data set [2], the “Adhesion (segments remaining without peeling or damage in 100 segments)” value was 72/100.

In the case of `C=CCOCC(=C)C(=O)[O-].C=CCOCC(=C)C(=O)[O-].C=CCOCC(=C)C(=O)[O-].[Al+3]` [Al(AMA)3], in data set [2], the “Adhesion (segments remaining without peeling or damage in 100 segments)” value was 100/100.

Take `C=CCOCC(=C)C(=O)OCCOCCOC(=O)C(=C)COCC=C` [DEG-AMA, diethylene glycol di(α-allyloxymethyl acrylate), reference compound]: in data set [1], the “Solubility (dissolution method) Acetone” value was “◯◯ (Become uniform and transparent at a compound concentration of 20% or more)”; the “Solubility (dissolution method) Acetonitrile” value is “◯◯ (Become uniform and transparent at a compound concentration of 20% or more)”; the “Solubility (dissolution method) Ethyl acetate” value was “◯◯ (Become uniform and transparent at a compound concentration of 20% or more)”; the “Solubility (dissolution method) Methanol” value was “◯◯ (Become uniform and transparent at a compound concentration of 20% or more)”. In data set [1], the “Solubility (dissolution method) THF” value is “◯◯ (Become uniform and transparent at a compound concentration of 20% or more)”; the “Solubility (dissolution method) Toluene” value is “◯◯ (Become uniform and transparent at a compound concentration of 20% or more)”; the “Solubility (dissolution method) Water” value is “X (Not become uniform and transparent even at a compound concentration of 1%)”. The “Adhesion (segments remaining without peeling or damage in 100 segments)” value in data set [2] is reported as 85/100.

Take `C=CCOCC(=C)C(=O)[O-].C=CCOCC(=C)C(=O)[O-].[Zn+2]` [Zn(AMA)2]: in data set [3], the “Solubility (film-forming method) Water” value is “X-Δ”. The “Adhesion (segments remaining without peeling or damage in 100 segments)” value in data set [2] is 100/100.

With `C=CCOCC(=C)C(=O)[O-].C=CCOCC(=C)C(=O)[O-].[O]=[Zr+2]` [ZrO(AMA)2], in data set [1], the “Solubility (dissolution method) Acetone” value is “◯◯ (Become uniform and transparent at a compound concentration of 20% or more)”; the “Solubility (dissolution method) Acetonitrile” value was “◯◯ (Become uniform and transparent at a compound concentration of 20% or more)”; the “Solubility (dissolution method) Ethyl acetate” value is “◯◯ (Become uniform and transparent at a compound concentration of 20% or more)”; the “Solubility (dissolution method) Methanol” value is “◯◯ (Become uniform and transparent at a compound concentration of 20% or more)”. In data set [1], the “Solubility (dissolution method) THF” value is “◯◯ (Become uniform and transparent at a compound concentration of 20% or more)”; the “Solubility (dissolution method) Toluene” value is “◯◯ (Become uniform and transparent at a compound concentration of 20% or more)”; the “Solubility (dissolution method) Water” value is “X (Not become uniform and transparent even at a compound concentration of 1%)”. The “Adhesion (segments remaining without peeling or damage in 100 segments)” value in data set [2] is listed as 100/100.
